{
  "source": "paper PMC12388523",
  "about": "“Flavonoids and Sesquiterpene Lactones from Lychnophora ericoides (Arnica-Do-Cerrado) and Their In Vitro Effects on Multiple Myeloma and Acute Myeloid Leukemia” (Metabolites, 2025)",
  "key": {"NF-κB": {"test_system": "NF-κB", "set-up": "method as in PMID 25621077", "details": "HT-29; cited from earlier work"}, "HS-5 cells [1]": {"test_system": "HS-5 cells", "assay": "Metabolic activity, resazurin staining, non-malignant HS-5", "format": "cell-based", "details": "HS5, HS-5 (non-malignant), 72 h, 95% confidence interval in brackets, read-out: IC50 inhibition of metabolic activity", "description": "(§1) Acute myeloid leukemia cell line HL-60 and multiple myeloma cell lines AMO-1 and KMS-12-PE were obtained from the German Collection of Microorganisms and Cell Cultures (DSMZ), Braunschweig, Germany, and non-tumorigenic stromal cell line HS-5 was acquired from the American Type Culture Collection (ATCC, Manassas, VA, USA). All cell lines were cultured in RPMI 1640 medium without phenol red (Pan Biotech, Aidenbach, Germany), supplemented with 2 mM glutamine, 100 U/mL penicillin, 100 µg/mL streptomycin (Sigma-Aldrich, St. Louis, MO, USA), and 10% fetal bovine serum (FBS Maximus, Catus Biotech GmbH, Tutzing, Germany) at 37 °C in a humidified atmosphere of 5% CO2/95% air. Cells were fed twice weekly. Logarithmically growing cells were resuspended at 1 × 10^5 cells/mL, plated in triplicate in round-bottom 96-well plates (100 µL per well; Falcon, Becton Dickinson, Franklin Lakes, NJ, USA), and incubated at 37 °C in 5% CO2/95% air for 2 h. […] Cell proliferation was assessed by [^3H]-thymidine uptake. […] Cells were harvested using a semi-automated device, and [^3H]-thymidine incorporation (expressed in counts per minute, cpm) was measured with a scintillation counter (MicroBeta TriLux, PerkinElmer, Waltham, MA, USA). Metabolic activity was assessed by resazurin staining. […] Relative fluorescence units (RFUs) were measured using a Synergy H1 plate reader equipped with a 560 nm excitation/590 nm emission filter set (BioTek; Agilent, Santa Clara, CA, USA). Proliferation and metabolic activity in the absence of compounds were defined as 100% (control), and the values for compound-treated samples were expressed as percentages relative to the control. Selectivity indices were calculated by dividing the IC50 value of each compound against HS-5 cells through the IC50 values against the investigated cell lines.\n(§2) The Wilcoxon Rank Sum Test was used to analyze proliferation and metabolic activity in the absence and presence of varying compound concentrations (NCSS 2007 software, version 07.1.2, Kaysville, UT, USA). […] IC50 values were calculated using GraphPad Prism 10.1.2. […]"}, "BC cell line": {"test_system": "BC cell line", "set-up": "method as in PMID 17089326", "details": "cited from earlier work"}, "NF-κB p65": {"test_system": "NF-κB p65", "set-up": "method as in PMID 22685350", "details": "read-out: concentration inhibiting NF-κB p65; cited from earlier work"}, "HT-29 cells": {"test_system": "HT-29 cells", "set-up": "method as in PMID 29350920", "details": "cited from earlier work"}, "MOLM-13 cells": {"test_system": "MOLM-13 cells", "assay": "Metabolic activity, resazurin staining, MOLM-13", "format": "cell-based", "description": "[The source words this procedure for another cell line and reports this cell line under the same test.] (§3) Acute myeloid leukemia cell line HL-60 and multiple myeloma cell lines AMO-1 and KMS-12-PE were obtained from the German Collection of Microorganisms and Cell Cultures (DSMZ), Braunschweig, Germany, and non-tumorigenic stromal cell line HS-5 was acquired from the American Type Culture Collection (ATCC, Manassas, VA, USA). All cell lines were cultured in RPMI 1640 medium without phenol red (Pan Biotech, Aidenbach, Germany), supplemented with 2 mM glutamine, 100 U/mL penicillin, 100 µg/mL streptomycin (Sigma-Aldrich, St. Louis, MO, USA), and 10% fetal bovine serum (FBS Maximus, Catus Biotech GmbH, Tutzing, Germany) at 37 °C in a humidified atmosphere of 5% CO2/95% air. Cells were fed twice weekly. Logarithmically growing cells were resuspended at 1 × 10^5 cells/mL, plated in triplicate in round-bottom 96-well plates (100 µL per well; Falcon, Becton Dickinson, Franklin Lakes, NJ, USA), and incubated at 37 °C in 5% CO2/95% air for 2 h. Subsequently, the compounds were adjusted in the cell culture medium to reach the final concentrations in a total volume of 150 µL and incubated for an additional 72 h. Cell proliferation was assessed by [^3H]-thymidine uptake. Each well was exposed to 2 µCi [^3H]-thymidine (Hartmann Analytic, Braunschweig, Germany) during the final 12–16 h of incubation. Cells were harvested using a semi-automated device, and [^3H]-thymidine incorporation (expressed in counts per minute, cpm) was measured with a scintillation counter (MicroBeta TriLux, PerkinElmer, Waltham, MA, USA). Metabolic activity was assessed by resazurin staining. Resazurin (Carl Roth, Karlsruhe, Germany) was dissolved in distilled water at a concentration of 0.1 mg/mL, and 15 µL of this solution was added to each well, followed by a 2 h incubation at 37 °C. Relative fluorescence units (RFUs) were measured using a Synergy H1 plate reader equipped with a 560 nm excitation/590 nm emission filter set (BioTek; Agilent, Santa Clara, CA, USA). Proliferation and metabolic activity in the absence of compounds were defined as 100% (control), and the values for compound-treated samples were expressed as percentages relative to the control. Selectivity indices were calculated by dividing the IC50 value of each compound against HS-5 cells through the IC50 values against the investigated cell lines.\n(§4) The Wilcoxon Rank Sum Test was used to analyze proliferation and metabolic activity in the absence and presence of varying compound concentrations (NCSS 2007 software, version 07.1.2, Kaysville, UT, USA). A p-value < 0.05 was considered statistically significant. IC50 values were calculated using GraphPad Prism 10.1.2. This software reports 95% confidence intervals instead of standard errors. […] Nonetheless, the figures clearly illustrate the IC50 values due to the narrow concentration range tested.\n(§5) Proliferation inhibition often leads to cell death. Therefore, the cytotoxic activity of the compounds was further evaluated using a modified 3-(4,5-dimethylthiazol-2-yl)-2,5-diphenyltetrazolium bromide (MTT) assay, the resazurin (Alamar Blue) assay. Metabolically active cells reduce the non-fluorescent dye resazurin to the fluorescent dye resorufin via mitochondrial reductase activity, which correlates with cell viability. In the first step the metabolic activity of the four isolated flavonoids was investigated, showing a dose-dependent reduction, but to a much lower extent than in the proliferation assays (Table A2). In fact, only 7,3′,4′-trimethoxymyricetin (2) inhibited the metabolic activity of all four cell lines by more than 50% at a concentration of 100 µM."}, "[2]": {"test_system": "myelomonocytic chicken cell line HD11-C3", "set-up": "method as in PMID 23501116", "details": "read-out: IC50 cytotoxic activity; cited from earlier work"}, "[3]": {"test_system": "c-Myb-dependent gene expression", "set-up": "method as in PMID 23501116", "details": "read-out: IC50 inhibition of c-Myb-dependent gene expression; cited from earlier work"}, "AMO-1 cells": {"test_system": "AMO-1 cells", "assay": "Metabolic activity, resazurin staining, AMO-1", "format": "cell-based", "description": "as §3, §4, §5"}, "HL-60 cells [4]": {"test_system": "HL-60 cells", "assay": "Metabolic activity, resazurin staining, HL-60", "format": "cell-based", "description": "as §3, §4, §5"}, "EOL-1": {"test_system": "EOL-1", "set-up": "method as in PMID 29350920", "details": "cited from earlier work"}, "HL-60 cells [5]": {"test_system": "HL-60 cells", "assay": "Proliferation, [3H]-thymidine uptake, HL-60", "format": "cell-based", "description": "as §3, §4"}, "MOLM-13": {"test_system": "MOLM-13", "set-up": "method as in PMID 29350920", "details": "cited from earlier work"}, "[6]": {"test_system": "human colon cancer cell line HT-29", "set-up": "method as in PMID 22685350", "details": "cited from earlier work"}, "KMS-12-PE cells": {"test_system": "KMS-12-PE cells", "assay": "Metabolic activity, resazurin staining, KMS-12-PE", "format": "cell-based", "description": "as §3, §4, §5"}, "B16": {"test_system": "B16", "set-up": "method as in PMID 15577239", "details": "cited from earlier work"}, "HS-5 cells [7]": {"test_system": "HS-5 cells", "assay": "Proliferation, [3H]-thymidine uptake, non-malignant HS-5", "format": "cell-based", "details": "HS5; HS-5 (non-malignant), 72 h, 95% confidence interval in brackets; read-out: IC50 inhibition of proliferation", "description": "as §1, §2"}},
  "data": [
    {"smiles": "C=C(C)C(=O)O[C@H]1C[C@@]2(C)OC(=CC2=O)/C(CO)=C\\[C@H]2OC(=O)C(=C)[C@H]12", "note": "[Compound 5, goyazensolide]", "values": [
      {"measurement": "NF-κB inhibition (in words)", "setting": "NF-κB", "value": "potent NF-κB inhibitor"},
      {"measurement": "IC50", "setting": "HS-5 cells [1]", "value": 2600, "unit": "nM"},
      {"measurement": "IC50", "setting": "BC cell line", "value": "< 300", "unit": "nM"},
      {"measurement": "IC50", "setting": "NF-κB p65", "value": 3800, "unit": "nM"},
      {"measurement": "IC50", "setting": "HT-29 cells", "value": 560, "unit": "nM"},
      {"measurement": "IC50", "setting": "MOLM-13 cells; Homo sapiens, MOLM-13, 72 h, resazurin, 95% confidence interval in brackets, read-out: IC50 inhibition of metabolic activity", "value": 1000, "unit": "nM"},
      {"measurement": "Selectivity index (metabolic activity)", "setting": "MOLM-13 cells; IC50 HS-5 / IC50 MOLM-13", "value": 2.6},
      {"measurement": "IC50", "setting": "[2]", "value": 10000, "unit": "nM"},
      {"measurement": "IC50", "setting": "[3]", "value": 630, "unit": "nM"},
      {"measurement": "IC50", "setting": "AMO-1 cells; Homo sapiens, AMO1, AMO-1, 72 h, resazurin, 95% confidence interval in brackets, read-out: IC50 inhibition of metabolic activity", "value": 2000, "unit": "nM"},
      {"measurement": "Selectivity index (metabolic activity)", "setting": "AMO-1 cells; IC50 HS-5 / IC50 AMO-1", "value": 1.3},
      {"measurement": "IC50", "setting": "HL-60 cells [4]; Homo sapiens, HL-60, 72 h, resazurin, 95% confidence interval in brackets, read-out: IC50 inhibition of metabolic activity", "value": 1700, "unit": "nM"},
      {"measurement": "Selectivity index (metabolic activity)", "setting": "HL-60 cells [4]; IC50 HS-5 / IC50 HL-60", "value": 1.5},
      {"measurement": "IC50", "setting": "EOL-1", "value": 1100, "unit": "nM"},
      {"measurement": "IC50", "setting": "HL-60 cells [5]; Homo sapiens, HL-60, 72 h, 95% confidence interval in brackets, read-out: IC50 inhibition of proliferation", "value": 1100, "unit": "nM"},
      {"measurement": "Selectivity index (proliferation)", "setting": "HL-60 cells [5]; IC50 HS-5 / IC50 HL-60", "value": 1.8},
      {"measurement": "IC50", "setting": "MOLM-13", "value": 860, "unit": "nM"},
      {"measurement": "IC50", "setting": "[6]", "value": 560, "unit": "nM"},
      {"measurement": "IC50", "setting": "KMS-12-PE cells; Homo sapiens, KMS-12-PE, 72 h, resazurin, 95% confidence interval in brackets, read-out: IC50 inhibition of metabolic activity", "value": 1900, "unit": "nM"},
      {"measurement": "Selectivity index (metabolic activity)", "setting": "KMS-12-PE cells; IC50 HS-5 / IC50 KMS-12-PE", "value": 1.4},
      {"measurement": "IC50", "setting": "B16", "value": 2080, "unit": "nM"},
      {"measurement": "IC50", "setting": "HS-5 cells [7]", "value": 2000, "unit": "nM"}
    ]}
  ]
}
